Results on 14 compounds are retold here after patent US11814391B2, “Macrocyclic compounds for the treatment of medical disorders” (Achillion Pharmaceuticals, Inc., priority 2018, dated 2023).

Molecules are shown by their SMILES.

Sequence of Human Factor D (P00746 26-253): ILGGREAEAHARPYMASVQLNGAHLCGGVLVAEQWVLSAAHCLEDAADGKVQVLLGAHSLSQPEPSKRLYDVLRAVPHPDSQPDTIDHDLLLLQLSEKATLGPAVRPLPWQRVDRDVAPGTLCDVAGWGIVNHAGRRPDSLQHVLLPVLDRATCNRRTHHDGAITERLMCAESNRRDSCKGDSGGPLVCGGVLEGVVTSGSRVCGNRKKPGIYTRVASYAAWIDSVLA

For the test, the target named is Human Factor D (Homo sapiens (Human), UniProt P00746). Nature of the test: Human Factor D assay. The following applies: Human Factor D 80 nM, substrate Z-L-Lys-SBzl, A405; read-out: IC50 (Stars). The class given is biochemical. The protocol:
The assay of Example 3 was used to determine the IC50's of the compounds. Other standard factor D inhibition assays are also available.
Human Factor D (purified from human serum, Complement Technology, Inc.) at 80 nM final concentration is incubated with test compound at various concentrations for 5 min at room temperature in 50 mM Tris, 1M NaCl, pH 7.5. A synthetic substrate Z-L-Lys-SBzI and DTNB (Ellman's reagent) are added to final concentrations of 100 μM each. Absorbance at 405 nm (A405) is recorded at 30 second intervals for 30 min using a microplate spectrophotometer. IC50 values are calculated by nonlinear regression of complement Factor D reaction rates as a function of test compound concentration.
In the case of `CC(=O)c1nn2c3c(cc(NCC4CCCCC4)cc13)CCCCCCC(=O)NC[C@@]13C[C@@H](C(=O)Nc4nc(C(F)(F)F)ccc4C)N(C(=O)C2)[C@@H]1C3` [Compound 39, (4^1R,4^3S,4^5R)-1^3-acetyl-1^5-((cyclohexylmethyl)amino)-N-(3-methyl-6-(trifluoromethyl)pyridin-2-yl)-3,7-dioxo-1^1H-4^2,6-diaza-1(1,7)-indazola-4(2,5)-bicyclo[3.1.0]hexanacyclotridecaphane-4^3-carboxamide], the IC50 is under 1000 nM.

`CC(=O)c1nn2c3c(cc(OCC(C)C)cc13)CCCCCCC(=O)NC[C@@]13C[C@@H](C(=O)Nc4nc(C(F)(F)F)ccc4C)N(C(=O)C2)[C@@H]1C3` [Compound 17, (4^1R,4^3S,4^5R)-1^3-acetyl-1^5-isobutoxy-N-(3-methyl-6-(trifluoromethyl)pyridin-2-yl)-3,7-dioxo-1^1H-4^2,6-diaza-1(1,7)-indazola-4(2,5)-bicyclo[3.1.0]hexanacyclotridecaphane-4^3-carboxamide]: the IC50 is under 1000 nM.

Turning to `CC(=O)c1nn2c3c(cccc13)CC/C=C/CC(=O)NC[C@@]13C[C@@H](C(=O)Nc4nc(Br)ccc4C)N(C(=O)C2)[C@@H]1C3` [Compound 46, (41R,43S,45R,E)-13-acetyl-N-(6-bromo-3-methylpyridin-2-yl)-3,7-dioxo-11H-42,6-diaza-l(1,7)-indazola-4(2,5)-bicyclo[3.1.0]hexanacyclododecaphan-9-ene-43-carboxamide], the IC50 is under 1000 nM.

`CC(=O)c1nn2c3c(cc(-c4nnc(C)o4)cc13)CCCCCCC(=O)NC[C@@]13C[C@@H](C(=O)Nc4nc(C(F)(F)F)ccc4C)N(C(=O)C2)[C@@H]1C3` [Compound 5, (4^1R,4^3S,4^5R)-1^3-acetyl-1^5-(5-methyl-1,3,4-oxadiazol-2-yl)-N-(3-methyl-6-(trifluoromethyl)pyridin-2-yl)-3,7-dioxo-1^1H-4^2,6-diaza-1(1,7)-indazola-4(2,5)-bicyclo[3.1.0]hexanacyclotridecaphane-4^3-carboxamide]: the IC50 is under 1000 nM.

Take `CC(=O)c1nn2c3c(cc(N4CCCC4)cc13)CCCCCCC(=O)NC[C@@]13C[C@@H](C(=O)Nc4nc(C(F)(F)F)ccc4C)N(C(=O)C2)[C@@H]1C3` [Compound 3, (4^1R,4^3S,4^5R)-1^3-acetyl-N-(3-methyl-6-(trifluoromethyl)pyridin-2-yl)-3,7-dioxo-1^5-(pyrrolidin-l-yl)-1^1H-4^2,6-diaza-1(1,7)-indazola-4(2,5)-bicyclo[3.1.0]hexanacyclotridecaphane-4^3-carboxamide]: the IC50 is under 1000 nM.

For `CC(=O)c1nn2c3c(cc(-c4cnc(C)cn4)cc13)CCCCC[C@@H](C)C(=O)NC[C@@]13C[C@@H](C(=O)Nc4nc(C(F)(F)F)ccc4C)N(C(=O)C2)[C@@H]1C3` [Compound 23, (4^1R,4^3S,4^5R,8R)-1^3-acetyl-8-methyl-N-(3-methyl-6-(trifluoromethyl)pyridin-2-yl)-15-(5-methylpyrazin-2-yl)-3,7-dioxo-1^1H-4^2,6-diaza-1(1,7)-indazola-4(2,5)-bicyclo[3.1.0]hexanacyclotridecaphane-4^3-carboxamide], the IC50 was under 1000 nM.

As to `CC(=O)c1nn2c3c(cc(-c4cnc(C)nc4)cc13)CCCCC(C)(C)CC(=O)NC[C@@]13C[C@@H](C(=O)Nc4nc(C(F)(F)F)ccc4C)N(C(=O)C2)[C@@H]1C3` [Compound 26, (4^1R,4^3S,4^5R)-1^3-acetyl-9,9-dimethyl-N-(3-methyl-6-(trifluoromethyl)pyridin-2-yl)-15-(2-methylpyrimidin-5-yl)-3,7-dioxo-1^1H-4^2,6-diaza-1(1,7)-indazola-4(2,5)-bicyclo[3.1.0]hexanacyclotridecaphane-4^3-carboxamide], the IC50 is under 1000 nM.

For the compound `CC(=O)c1nn2c3c(cc(NC4CCCC4)cc13)CCCCCCC(=O)NCC13CC(C(=O)Nc4nc(C(F)(F)F)ccc4C)N(C(=O)C2)C1C3` [Compound 55, (41R,43S,45R)-13-acetyl-15-(cyclopentylamino)-N-(3-methyl-6-(trifluoromethyl)pyridin-2-yl)-3,7-dioxo-11H-42,6-diaza-1(1,7)-indazola-4(2,5)-bicyclo[3.1.0]hexanacyclotridecaphane-43-carboxamide], the IC50 is under 1000 nM.

In the case of `CC(=O)c1nn2c3c(cc(C4CC4)cc13)CCCCCCC(=O)NC[C@@]13C[C@@H](C(=O)Nc4nc(C(F)(F)F)ccc4C)N(C(=O)C2)[C@@H]1C3` [Compound 4, (4^1R,4^3S,4^5R)-1^3-acetyl-1^5-cyclopropyl-N-(3-methyl-6-(trifluoromethyl)pyridin-2-yl)-3,7-dioxo-1^1H-4^2,6-diaza-1(1,7)-indazola-4(2,5)-bicyclo[3.1.0]hexanacyclotridecaphane-4^3-carboxamide], the IC50 is under 1000 nM.

Take `CC(=O)c1nn2c3c(cc(-c4cnc(C)nc4)cc13)CCCCCCC(=O)NC[C@@]13C[C@@H](C(=O)N[C@@H](C)[C@H]4CC4(Cl)Cl)N(C(=O)C2)[C@@H]1C3` [Compound 30, (4^1R,4^3S,4^5R)-1^3-acetyl-N-((S)-1-((R)-2,2-dichlorocyclopropyl)ethyl)-1^5-(2-methylpyrimidin-5-yl)-3,7-dioxo-1^1H-4^2,6-diaza-1(1,7)-indazola-4(2,5)-bicyclo[3.1.0]hexanacyclotridecaphane-4^3-carboxamide]: the IC50 was under 1000 nM.

As to `CC(=O)c1nn2c3c(cc(NC(=O)C4CC4)cc13)CCCCCCC(=O)NCC13CC(C(=O)Nc4nc(C(F)(F)F)ccc4C)N(C(=O)C2)C1C3` [Compound 57, (41R,43S,45R)-13-acetyl-15-(cyclopropanecarboxamido)-N-(3-methyl-6-(trifluoromethyl)pyridin-2-yl)-3,7-dioxo-11H-42,6-diaza-1(1,7)-indazola-4(2,5)-bicyclo[3.1.0]hexanacyclotridecaphane-43-carboxamide], the IC50 was under 1000 nM.

For `CC(=O)c1nn2c3c(cc(-c4cnc(C)nc4)cc13)CCCCCC(C)(C)C(=O)NC[C@@]13C[C@@H](C(=O)Nc4nc(C(F)(F)F)ccc4C)N(C(=O)C2)[C@@H]1C3` [Compound 10, (4^1R,4^3S,4^5R)-1^3-acetyl-8,8-dimethyl-N-(3-methyl-6-(trifluoromethyl)pyridin-2-yl)-1^5-(2-methylpyrimidin-5-yl)-3,7-dioxo-1^1H-4^2,6-diaza-1(1,7)-indazola-4(2,5)-bicyclo[3.1.0]hexanacyclotridecaphane-4^3-carboxamide], the half-inhibitory concentration (IC50) is under 1000 nM.

Take `CC(=O)c1nn2c3c(cccc13)CC/C=C/CCC(=O)NC[C@@]13C[C@@H](C(=O)Nc4nc(Br)ccc4C)N(C(=O)C2)[C@@H]1C3` [Compound 47, (41R,43S,45R,E)-13-acetyl-N-(6-bromo-3-methylpyridin-2-yl)-3,7-dioxo-11H-42,6-diaza-1(1,7)-indazola-4(2,5)-bicyclo[3.1.0]hexanacyclotridecaphan-10-ene-43-carboxamide]: the IC50 is under 1000 nM.

Regarding `CC(=O)c1nn2c3c(cc(NC(C)C)cc13)CCCCCCC(=O)NC[C@@]13C[C@@H](C(=O)Nc4nc(C(F)(F)F)ccc4C)N(C(=O)C2)[C@@H]1C3` [Compound 25, (4^1R,4^3S,4^5R)-1^3-acetyl-1^5-(isopropylamino)-N-(3-methyl-6-(trifluoromethyl)pyridin-2-yl)-3,7-dioxo-1^1H-4^2,6-diaza-1(1,7)-indazola-4(2,5)-bicyclo[3.1.0]hexanacyclotridecaphane-4^3-carboxamide], the IC50 is under 1000 nM.

A word on the IC50: it is the concentration that gives 50% inhibition.
